Results on 20 compounds are retold here after PubChem BioAssay AID743432 (The Scripps Research Institute Molecular Screening Center, 2014).

Each structure is given as a SMILES string. pIC50: −log10 of the molar value. Activity calls are given as the source filed them. The rule behind the calls is not given here.

For this test, the target named is Sphingosine 1-phosphate receptor 4 (Homo sapiens) (UniProt O95977). The test is described as follows: antagonism at human S1PR4 – cell-based, FRET, dose response, selectivity assay for S1PR3 antagonist project, late-stage follow-up (AID 743432). As to conditions: S1P4 cell line.
Chain of Sphingosine 1-phosphate receptor 4 (Homo sapiens) (O95977 whole entry, looked up): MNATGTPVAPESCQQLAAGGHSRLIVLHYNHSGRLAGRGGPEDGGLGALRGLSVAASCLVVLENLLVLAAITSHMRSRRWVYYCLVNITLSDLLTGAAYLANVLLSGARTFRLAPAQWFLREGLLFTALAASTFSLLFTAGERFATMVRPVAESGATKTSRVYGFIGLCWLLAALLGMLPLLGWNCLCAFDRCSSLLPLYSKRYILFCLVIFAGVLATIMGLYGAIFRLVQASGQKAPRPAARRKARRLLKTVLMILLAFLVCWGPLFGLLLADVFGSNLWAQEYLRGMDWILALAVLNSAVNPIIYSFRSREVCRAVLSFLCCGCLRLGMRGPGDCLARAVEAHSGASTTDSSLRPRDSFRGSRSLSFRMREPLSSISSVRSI
In the case of `O=C(NC(c1nc(-c2ccccc2)no1)C1CCCCC1)c1ccc(Cl)c(Cl)c1` (stereo not given), the IC50 (in general, the concentration that inhibits the measured activity by half) was > 50 µM (inactive).
Consider `O=C(NC(c1ccc(Cl)cc1)c1nc(-c2ccccn2)no1)c1cccc(Cl)c1` (stereo not given), for which the IC50 was > 50 µM (inactive).
In the case of `N#Cc1ccc(C(=O)NC(c2ccc(Cl)c(Cl)c2)c2nc(-c3ccccc3)no2)cc1` (stereo not given), the pIC50 (usually the negative decadic logarithm of the IC50, by convention in mol/L) is 5.51.
In the case of `O=C(NC(c1ccc(Br)cc1)c1nc(-c2ccccc2)no1)c1ccc(Cl)c(Cl)c1` (stereo not given), the IC50 was > 50 µM (inactive).
In the case of `O=C(NC(c1ccccc1)c1nc(-c2ccccc2)no1)c1cccc(Br)c1` (stereo not given), the IC50 was > 50 µM (inactive).
Turning to `O=C(NC(c1cccc(Cl)c1)c1nc(-c2ccccc2)no1)c1cc(Cl)cc(Cl)c1` (stereo not given), the IC50 was > 50 µM (inactive).
On to `O=C(NC(c1ccc(Cl)cc1)c1nc(-c2cccc(Cl)c2)no1)c1cccc(Cl)c1` (stereo not given), for which the IC50 was > 50 µM (inactive).
Regarding `O=C(NC(c1ccccc1)c1nc(-c2ccccc2)no1)c1cccc(Cl)c1` (stereo not given), the IC50 was > 50 µM (inactive).
As for `O=C(NC(c1ccccc1)c1nc(-c2ccccc2)no1)c1cccc(Cl)n1` (stereo not given), the IC50 is > 50 µM (inactive).
As to `O=C(NC(c1ccc(Cl)cc1)c1nc(-c2ccccc2)no1)c1ccc(Cl)c(Cl)c1` (stereo not given), the IC50 is > 50 µM (inactive).
For the compound `O=C(NC(c1ccc(Cl)cc1)c1nc(-c2ccccc2)no1)c1ccc(Cl)c(Br)c1` (stereo not given), the IC50 was > 50 µM (inactive).
Same read-out and setting: with `CCc1ccc(C(NC(=O)c2cccc(Cl)c2)c2nc(-c3ccccc3)no2)cc1` (stereo not given) the figure was > 50 µM (inactive).
Same read-out and setting: the value for `COc1ccc(C(=O)NC(c2ccccc2)c2nc(-c3ccccc3)no2)cc1` (stereo not given) was > 50 µM (inactive); that for `Cc1ccc(C(NC(=O)c2cccc(Cl)c2)c2nc(-c3ccccc3)no2)cc1` (stereo not given) was > 50 µM (inactive); that for `O=C(NC(c1ccc(Cl)c(Cl)c1)c1nc(-c2ccccc2)no1)c1ccc(Cl)c(Cl)c1` (stereo not given) was > 50 µM (inactive).
Still for that read-out and setting: with `O=C(NC(c1ccc(Cl)c(Cl)c1)c1nc(-c2ccccc2)no1)c1ccccc1` (stereo not given) the figure was > 50 µM (inactive).
On to `O=C(NC(c1cccc(Cl)c1)c1nc(-c2ccccc2)no1)c1cccc(Cl)c1` (stereo not given), for which the negative-log IC50 (pIC50) is 5.28.
In the case of `O=C(c1cccc(Cl)c1)N(CCO)C(c1ccc(Cl)c(Cl)c1)c1nc(-c2ccccc2)no1` (stereo not given), the IC50 result is “inactive”.
In the case of `Cc1ccc(C(=O)NC(c2ccccc2)c2nc(-c3ccccc3)no2)cc1` (stereo not given), the IC50 is > 50 µM (inactive).
On the same count and under the same terms, the value for `O=C(NC(c1cccc(Cl)c1)c1nc(-c2ccccc2)no1)c1ccc(Cl)c(Cl)c1` (stereo not given) was > 50 µM (inactive).
